# Results reported in ChEMBL document CHEMBL5696442, “Discovery of type II inhibitors of TGFβ-activated kinase 1 (TAK1) and mitogen-activated protein kinase kinase kinase kinase 2 (MAP4K2)” (J Med Chem, 2015).
# Tests used:
# [1] = molecular target: T1, Serine/threonine-protein kinase Nek9 (Homo sapiens) (UniProt Q8TD19); assay: Inhibition of NEK9 ACT labeling site in human A-375 cells at 5 uM by KiNativ Profiling analysis relative to control; assay type: cell-based
# T1 sequence (whole entry): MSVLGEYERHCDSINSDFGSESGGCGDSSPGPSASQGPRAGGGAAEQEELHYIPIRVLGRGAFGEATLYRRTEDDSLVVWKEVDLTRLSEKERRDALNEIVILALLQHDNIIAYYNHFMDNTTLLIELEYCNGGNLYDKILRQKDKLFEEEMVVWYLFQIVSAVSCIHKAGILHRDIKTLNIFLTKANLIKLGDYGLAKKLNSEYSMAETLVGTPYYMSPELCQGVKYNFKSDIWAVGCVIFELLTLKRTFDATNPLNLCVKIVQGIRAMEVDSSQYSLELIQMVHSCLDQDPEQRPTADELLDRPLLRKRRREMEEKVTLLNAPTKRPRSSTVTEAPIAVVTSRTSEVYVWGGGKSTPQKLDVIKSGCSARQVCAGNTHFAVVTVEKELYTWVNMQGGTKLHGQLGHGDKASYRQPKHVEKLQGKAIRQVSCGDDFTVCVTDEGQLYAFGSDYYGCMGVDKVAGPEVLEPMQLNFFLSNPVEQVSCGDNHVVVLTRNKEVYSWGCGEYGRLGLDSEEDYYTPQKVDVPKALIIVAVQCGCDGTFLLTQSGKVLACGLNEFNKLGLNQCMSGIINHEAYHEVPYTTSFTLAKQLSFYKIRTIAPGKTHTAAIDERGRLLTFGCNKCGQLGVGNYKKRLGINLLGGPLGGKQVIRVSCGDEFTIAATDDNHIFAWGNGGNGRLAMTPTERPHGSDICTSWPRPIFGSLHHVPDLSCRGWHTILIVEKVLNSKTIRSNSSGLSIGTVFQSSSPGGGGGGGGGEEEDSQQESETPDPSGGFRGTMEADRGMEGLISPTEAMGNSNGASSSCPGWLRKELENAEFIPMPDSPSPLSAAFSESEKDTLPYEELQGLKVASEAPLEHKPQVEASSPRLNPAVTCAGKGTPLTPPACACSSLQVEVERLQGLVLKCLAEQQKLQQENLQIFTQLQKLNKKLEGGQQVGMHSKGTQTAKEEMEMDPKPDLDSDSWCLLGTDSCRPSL
# [2] = molecular target: Interferon-induced, double-stranded RNA-activated protein kinase (Homo sapiens) (UniProt P19525); assay: Inhibition of PKR K2 labeling site in human Huh-7 cells at 1 uM by KiNativ Profiling analysis relative to control; assay type: cell-based
# Chain of Interferon-induced, double-stranded RNA-activated protein kinase (Homo sapiens) (P19525 whole entry): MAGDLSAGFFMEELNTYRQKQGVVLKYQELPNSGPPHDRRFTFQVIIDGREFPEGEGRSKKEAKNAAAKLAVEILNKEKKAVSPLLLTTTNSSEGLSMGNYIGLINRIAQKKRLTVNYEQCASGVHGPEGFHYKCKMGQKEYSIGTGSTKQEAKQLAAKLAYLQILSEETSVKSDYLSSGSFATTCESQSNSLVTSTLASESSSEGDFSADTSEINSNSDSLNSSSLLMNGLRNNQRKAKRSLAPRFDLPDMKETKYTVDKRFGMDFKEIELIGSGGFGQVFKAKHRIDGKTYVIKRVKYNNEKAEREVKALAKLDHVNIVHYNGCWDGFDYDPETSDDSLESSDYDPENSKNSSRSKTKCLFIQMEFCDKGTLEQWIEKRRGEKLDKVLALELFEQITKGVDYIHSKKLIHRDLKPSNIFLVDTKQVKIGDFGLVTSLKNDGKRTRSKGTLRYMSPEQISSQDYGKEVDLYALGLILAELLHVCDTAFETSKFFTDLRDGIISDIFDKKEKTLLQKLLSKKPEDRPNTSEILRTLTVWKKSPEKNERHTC
# [3] = molecular target: T2, Serine/threonine-protein kinase greatwall (Homo sapiens) (UniProt Q96GX5); assay: Inhibition of MASTL ATP labeling site in human Huh-7 cells at 10 uM by KiNativ Profiling analysis relative to control; assay type: cell-based
# T2 sequence (whole entry): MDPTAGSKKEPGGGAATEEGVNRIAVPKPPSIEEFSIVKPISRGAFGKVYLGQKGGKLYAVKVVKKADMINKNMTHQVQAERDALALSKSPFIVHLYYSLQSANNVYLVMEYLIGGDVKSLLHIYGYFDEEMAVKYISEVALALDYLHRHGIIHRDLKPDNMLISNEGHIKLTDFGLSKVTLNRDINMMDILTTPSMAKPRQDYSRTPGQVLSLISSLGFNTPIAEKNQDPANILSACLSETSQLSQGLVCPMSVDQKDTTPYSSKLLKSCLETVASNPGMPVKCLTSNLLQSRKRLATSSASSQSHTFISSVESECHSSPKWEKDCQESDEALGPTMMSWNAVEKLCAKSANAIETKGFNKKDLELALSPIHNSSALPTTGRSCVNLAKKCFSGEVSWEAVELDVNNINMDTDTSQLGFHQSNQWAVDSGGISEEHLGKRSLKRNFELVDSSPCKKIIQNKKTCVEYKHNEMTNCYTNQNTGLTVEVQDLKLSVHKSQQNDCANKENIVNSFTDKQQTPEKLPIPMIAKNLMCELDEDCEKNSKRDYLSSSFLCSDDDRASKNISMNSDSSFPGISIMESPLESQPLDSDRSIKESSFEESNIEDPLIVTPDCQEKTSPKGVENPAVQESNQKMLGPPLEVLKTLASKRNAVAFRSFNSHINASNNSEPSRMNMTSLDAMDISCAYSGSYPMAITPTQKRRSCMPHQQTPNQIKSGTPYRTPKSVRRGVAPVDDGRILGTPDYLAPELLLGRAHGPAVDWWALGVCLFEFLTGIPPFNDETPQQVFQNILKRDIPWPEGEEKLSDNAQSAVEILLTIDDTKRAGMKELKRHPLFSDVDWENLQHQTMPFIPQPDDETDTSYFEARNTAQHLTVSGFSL
# [4] = molecular target: T3, NUAK family SNF1-like kinase 1 (Homo sapiens) (UniProt O60285); assay: Inhibition of NuaK1 Lys2 labeling site in human Huh-7 cell lysate at 1 uM by KiNativ Profiling analysis relative to control; assay type: subcellular
# T3 sequence (whole entry): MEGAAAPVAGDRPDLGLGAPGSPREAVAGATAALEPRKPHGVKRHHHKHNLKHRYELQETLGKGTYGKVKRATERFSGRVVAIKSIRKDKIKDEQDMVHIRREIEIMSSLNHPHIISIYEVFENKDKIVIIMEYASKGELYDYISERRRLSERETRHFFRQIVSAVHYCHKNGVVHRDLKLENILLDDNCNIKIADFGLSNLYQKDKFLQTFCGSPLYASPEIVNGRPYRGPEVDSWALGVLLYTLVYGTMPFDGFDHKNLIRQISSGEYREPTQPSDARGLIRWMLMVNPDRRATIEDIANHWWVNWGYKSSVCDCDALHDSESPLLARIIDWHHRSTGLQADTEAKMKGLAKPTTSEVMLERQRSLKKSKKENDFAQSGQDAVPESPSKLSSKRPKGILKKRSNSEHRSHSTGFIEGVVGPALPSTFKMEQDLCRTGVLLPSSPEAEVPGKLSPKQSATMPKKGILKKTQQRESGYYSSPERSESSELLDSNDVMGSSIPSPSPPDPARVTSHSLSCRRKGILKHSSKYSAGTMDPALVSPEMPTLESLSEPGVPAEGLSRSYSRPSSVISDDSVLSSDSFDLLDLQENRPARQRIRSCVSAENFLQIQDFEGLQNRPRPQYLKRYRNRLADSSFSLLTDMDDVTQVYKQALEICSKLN
smiles,measurement,setting,value
CCN1CCN(Cc2ccc(NC(=O)c3ccc(C)c(/C=C/c4cnc5[nH]ccc5c4OC)c3)cc2C(F)(F)F)CC1,inhibition,[1],14.9%
CCN1CCN(Cc2ccc(NC(=O)c3ccc(C)c(Oc4ccnc5[nH]ccc45)c3)cc2C(F)(F)F)CC1,inhibition,[2],4%
same,inhibition,[3],3.9%
CNc1cc(Oc2cc(C(=O)Nc3cc(N4CCN(C)CC4)cc(C(F)(F)F)c3)ccc2C)ncn1,inhibition,[4],-8.6%
